# In PubChem BioAssay AID652155 (Sanford-Burnham Center for Chemical Genomics, 2013):
# Activity calls are given as the source filed them.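 Rule for the calls: active = compounds with mean IC50 of 15 µM or lower in the worm heat shock reporter counterscreen; inactive = the rest.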
# Tested on: C. elegans VP596 hsp-16.2 GFP/RFP heat-shock reporter
# Assay: hsp-16.2 heat-shock reporter inhibition in worms, SAR follow-up, counter-screen for SKN-1 inhibitor project, whole organism, C. elegans VP596, GFP/RFP ratio (AID 652155)
row,Structure (SMILES),IC50
1,Fc1ccc(-c2csc(-c3cccnc3)n2)cc1,> 64 µM (inactive)
2,COc1ccc(-c2csc(-c3ccncc3)n2)cc1,> 64 µM (inactive)
3,CCOc1cc(CNC2CC2)cc(Cl)c1OCc1ccc(F)cc1,> 64 µM (inactive)
4,Cc1ccc(-c2csc(-c3cccnc3)n2)cc1,> 64 µM (inactive)
5,Cc1ccc(-c2csc(-c3ccncc3)n2)cc1,> 64 µM (inactive)
6,CCOc1cc(CNC(C)C)cc(Cl)c1OCc1ccc(F)cc1,> 64 µM (inactive)
7,CCOc1cc(CNC2CCCC2)cc(Cl)c1OCc1ccc(OC)cc1,> 64 µM (inactive)
8,Clc1ccc(-c2csc(-c3cccnc3)n2)cc1,> 64 µM (inactive)
9,CCOc1cc(CNc2ccccc2)cc(Cl)c1OCc1ccc(F)cc1,> 64 µM (inactive)
10,CCOc1cc(CNC2CCCC2)cc(Cl)c1OCc1ccccc1Cl,> 64 µM (inactive)
11,c1ccc(-c2csc(-c3cccnc3)n2)cc1,> 64 µM (inactive)
12,Fc1ccc(COc2ccc(CNC3CCCC3)cc2Cl)cc1,> 64 µM (inactive)
13,CCOc1cc(CNC2CCCC2)cc(Cl)c1OCc1ccc(Cl)cc1,> 64 µM (inactive)
14,CCOc1cc(CNC2CCCC2)cc(Cl)c1OC,> 64 µM (inactive)
15,CCOc1cc(CNC2CCC2)cc(Cl)c1OCc1ccc(F)cc1,> 64 µM (inactive)
16,COc1cc(CNC2CCCC2)cc(Cl)c1OCc1ccc(F)cc1,> 64 µM (inactive)
17,CCOc1cc(CNC2CCCC2)cc(Cl)c1OCc1ccccc1F,> 64 µM (inactive)
18,c1ccc(-c2csc(-c3ccncc3)n2)cc1,> 64 µM (inactive)
19,CCOc1cc(C(=O)NC2CCCC2)cc(Cl)c1OCc1ccc(F)cc1,> 64 µM (inactive)
20,Fc1ccc(-c2csc(-c3ccncc3)n2)cc1,> 64 µM (inactive)
21,CCOc1cc(CNC2CCCC2)cc(Cl)c1OCc1ccc(F)cc1,> 64 µM (inactive)
22,CCOc1cc(CNCc2ccccc2)cc(Cl)c1OCc1ccc(F)cc1,> 64 µM (inactive)
23,Clc1ccc(-c2csc(-c3ccncc3)n2)cc1,> 64 µM (inactive)
24,COc1ccc(-c2csc(-c3cccnc3)n2)cc1,> 64 µM (inactive)
25,CCOc1cc(CNC2CCCC2)cc(Cl)c1OCc1cccc(F)c1,> 64 µM (inactive)
26,CCOc1cc(CNC2CCCC2)ccc1OCc1ccc(F)cc1,> 64 µM (inactive)
27,CCOc1cc(CNC2CCCC2)cc(Cl)c1OCc1ccc(C)cc1,> 64 µM (inactive)
28,CCOc1cc(CNC2CCCCC2)cc(Cl)c1OCc1ccc(F)cc1,> 64 µM (inactive)
